Test results taken from patent US8795679B2, “Pharmaceutical and cosmetic use of extracts from algae obtainable from saline hot water sources” (Blaa Lonid Hf, priority 2006, dated 2014).

Test system: differentiation markers involucrin, transglutaminase-1, filaggrin, and loricrin in human epidermal keratinocytes
Test: Induction of differentiation markers in human epidermal keratinocytes (real time RT-PCR)
Assay type: cell-based
Conditions: especially at the early time point, 24 h post addition of the tested substance
Description: The effect of the extracts obtained in Examples 1 and 2 on the differentiation markers involucrin, transglutaminase-1, filaggrin, and loricrin in human epidermal keratinocytes has been assessed. As control a ceramide mix (10 μM) was used to induce the differentiation markers.
Long term cultured normal human epidermal keratinocytes, NHEK, prepared from neonatal foreskin are cultured in Keratinocyte SFM (Invitrogen, Heidelberg, Germany) supplemented with bovine pituitary extract (Invitrogen, Heidelberg, Germany) and recombinant epidermal growth factor (Invitrogen, Heidelberg, Germany). Cells are propagated up to passage 2 or 3 at 37° C. and 5% CO2. For induction of differentiation NHEKs are seeded in 6-well plates and grown up to confluence and treated with several concentrations of the algae extracts.
Total RNA was isolated using RNeasy Total RNA Kits (Qiagen, Hilden, Germany). The RNA concentration was determined via photometric measurement at 260/280 (Biophotometer, Eppendorf A G, Hamburg, Germany). An aliquot of 100 ng RNA was used for cDNA synthesis. […]
PCR reactions were carried out on an Opticon 1 (MJ Research, Waltham, Mass., USA) using SYBR Green® PCR Master Mix (Applied Biosystems, Darmstadt, Germany). Each sample was analyzed in double employing the universal protocol over 36 cycles. […]

## O=[Si]([O-])[O-].[Na+].[Na+] [sodium metasilicate]
  expression of the differentiation markers involucrin, filaggrin and transglutaminase-1 (silica samples): substantial up-regulation
